From patent publication US20110003776A1, “[…] DERIVATIVES, PHARMACEUTICAL COMPOSITIONS AND THERAPEUTIC TREATMENT THEREOF” (TRUSTEES OF BOSTON UNIVERSITY, priority 2009, published 2011)

Tested on: Mycobacterium tuberculosis
Assay: microplate Alamar Blue assay (MABA) against Mycobacterium tuberculosis
Type: cell-based
Conditions: MIC and IC50 values only in Scheme 5
Text: The skilled artisan is well aware of the methods for measuring growth of mycobacteria. A common method of detecting growth in mycobacterial cultures involves the use of […]. An exemplary method is the microplate Alamar Blue assay (MABA), described in Falzari, et al., Antimicrob. Agents Chemother. 2005, 49, 1447-1454 (2005), content of which is herein incorporated by reference.
The library compounds of ureas 7, amides 8, and sulfonamides 9 were screened for activity against Mycobacterium tuberculosis using the microplate Alamar Blue assay (MABA), described in Falzari, et al., Antimicrob. Agents Chemother. 2005, 49, 1447-1454 (2005), content of which is herein incorporated by reference. The MIC values were established after initial positive hits were identified (>80% inhibition at 10 μg/mL). Cytotoxicity assays were performed on Vero cells with IC50 values greater than 50 μg/mL under the assay conditions. Activities were subsequently validated in duplicate assays with resynthesized compound.

SMILES | activity against Mycobacterium tuberculosis
COc1ccc(-c2nc3c(c4c2C[C@H](c2ccccc2)OC4)CN(C(=O)N[C@H](C)c2ccccc2)CC3)c(C)c1 [7{4,1}] | significant activities
COc1ccc(NC(=O)N2CCc3nc(-c4ccc(OC)cc4C)c4c(c3C2)CO[C@@H](c2ccccc2)C4)cc1 [7{4,2}, (R)-6-(4-Methoxy-2-methylphenyl)-N-(4-methoxyphenyl)-8-phenyl-3,4,7,8-tetrahydro-1H-pyrano[4,3-c][1,6]naphthyridine-2(10H)-carboxamide] | significant activities
COc1ccc(-c2nc3c(c4c2C[C@H](c2ccccc2)OC4)CN(S(=O)(=O)c2ccc(C#N)cc2)CC3)c(C)c1 [9{4,4}] | significant activities
